In patent publication US6358885B1, “Substituted phenylheterocyclic herbicides” (Mississippi State University, priority 1992, dated 2002):

How the values were obtained:
barnyardgrass = experiment: Test B preemergence/postemergence greenhouse plant response rating 0 to 10; format: in vivo, Echinochloa crus-galli; details: 0 to 10 scale
Procedure, shortened: (§1)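 Planted seeds are treated preemergence with compound dissolved in a non-phytotoxic solvent, while postemergence applications go onto plants of two to eighteen cm. Plants stay in the greenhouse twelve to sixteen days and are then rated visually relative to controls.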

chickweed = experiment: as above; format: in vivo, Stellaria media; details: 0 to 10 scale
Procedure, shortened: as §1

rape = experiment: as above; format: in vivo, Brassica napus; details: 0 to 10 scale
Procedure, shortened: as §1

wild buckwheat = experiment: as above; format: in vivo, Polygonum convolvulus; details: 0 to 10 scale
Procedure, shortened: as §1

bedstraw = experiment: Test C preemergence/postemergence greenhouse plant response rating 0 to 100; format: in vivo, Galium aparine; details: POSTEMERGENCE; for Plant response rating, Bedstraw: 0 to 100 scale
Procedure, shortened: (§2)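 Compounds in non-phytotoxic solvent went onto sandy loam before emergence (seeded one day earlier) or onto plants at the one-to-four leaf stage. Duck salad was treated via flood water (~2.5 cm, maintained) over silt loam.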

corn = experiment: as above; format: in vivo, Zea mays; details: POSTEMERGENCE; for Plant response rating, Corn: 0 to 100 scale
Procedure, shortened: as §2

crabgrass = experiment: as above; format: in vivo, Digitaria sanguinalis; details: POSTEMERGENCE; for Plant response rating, Crabgrass: 0 to 100 scale
Procedure, shortened: as §2

downy brome = experiment: as above; format: in vivo, Bromus tectorum; details: POSTEMERGENCE; for Plant response rating Downy Brome: 0 to 100 scale
Procedure, shortened: as §2

ryegrass = experiment: as above; format: in vivo, Lolium multiflorum; details: POSTEMERGENCE; for Plant response rating Ryegrass: 0 to 100 scale
Procedure, shortened: as §2

sugar beet = experiment: as above; format: in vivo, Beta vulgaris; details: POSTEMERGENCE; for Plant response rating, Sugar beet: 0 to 100 scale
Procedure, shortened: as §2

wild oat = experiment: as above; format: in vivo, Avena fatua; details: POSTEMERGENCE; for Plant response rating, Wild oat: 0 to 100 scale
Procedure, shortened: as §2

umbrella sedge = experiment: Test C flood test plant response rating 0 to 100; format: in vivo, Cyperus difformis; details: for Plant response rating Umbrella sedge: flood test species listed under POSTEMERGENCE, 0 to 100 scale
Procedure, shortened: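 Compounds in non-phytotoxic solvent applied preemergence to sandy loam one day after planting, postemergence at the 1–4 leaf stage, or to ~2.5 cm floodwater over silt loam.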

[1] = Rate 16 g/ha, under POSTEMERGENCE head (flood test species)

With CCC(C)Oc1cc(-c2nn3c(c2Cl)CCCC3)c(F)cc1Cl (stereo not drawn) [Compound 48] the “Plant response rating, Barnyardgrass” value (barnyardgrass; POSTEMERGENCE, Rate 50 g/ha) was 4, the “Plant response rating, Barnyardgrass” value (barnyardgrass; POSTEMERGENCE, Rate 200 g/ha) was 8 and the “Plant response rating, Barnyardgrass” value (barnyardgrass; PREEMERGENCE, Rate 50 g/ha) was 2. The “Plant response rating, Barnyardgrass” value (barnyardgrass; Rate 200 g/ha, PREEMERGENCE) was 3, the “Plant response rating, Chickweed” value (chickweed; POSTEMERGENCE, Rate 50 g/ha) was 9 and the “Plant response rating, Chickweed” value (chickweed; POSTEMERGENCE, Rate 200 g/ha) was 8. For the same compound, the “Plant response rating, Chickweed” value (chickweed; Rate 200 g/ha, PREEMERGENCE) was 4, the “Plant response rating, Rape” value (rape; POSTEMERGENCE, Rate 50 g/ha) was 8 and the “Plant response rating, Rape” value (rape; PREEMERGENCE, Rate 50 g/ha) was 4. The “Plant response rating, Rape” value (rape; Rate 200 g/ha, POSTEMERGENCE) was 6, the “Plant response rating, Rape” value (rape; Rate 200 g/ha, PREEMERGENCE) was 9 and the “Plant response rating, Wild buckwheat” value (wild buckwheat; POSTEMERGENCE, Rate 50 g/ha) was 10. For the same compound, the “Plant response rating, Wild buckwheat” value (wild buckwheat; PREEMERGENCE, Rate 50 g/ha) was 9, the “Plant response rating, Wild buckwheat” value (wild buckwheat; Rate 200 g/ha, POSTEMERGENCE) was 9 and the “Plant response rating, Wild buckwheat” value (wild buckwheat; Rate 200 g/ha, PREEMERGENCE) was 10. The “Plant response rating, Bedstraw” value (bedstraw; 62 g/ha) was 100, the “Plant response rating, Bedstraw” value (bedstraw; 250 g/ha) was 100 and the “Plant response rating (0 to 100), Bedstraw” value (bedstraw; Rate 4 g/ha) was 20. The “Plant response rating (0 to 100), Bedstraw” value (bedstraw; Rate 16 g/ha) was 40, the “Plant response rating, Corn” value (corn; 62 g/ha) was 40 and the “Plant response rating, Corn” value (corn; 250 g/ha) was 50. The “Plant response rating (0 to 100), Corn” value (corn; Rate 4 g/ha) was 10, the “Plant response rating (0 to 100), Corn” value (corn; Rate 16 g/ha) was 30 and the “Plant response rating, Crabgrass” value (crabgrass; 62 g/ha) was 30. For the same compound, the “Plant response rating, Crabgrass” value (crabgrass; 250 g/ha) was 40, the “Plant response rating (0 to 100), Crabgrass” value (crabgrass; Rate 4 g/ha) was 10 and the “Plant response rating (0 to 100), Crabgrass” value (crabgrass; Rate 16 g/ha) was 20. For the same compound, the “Plant response rating Downy Brome” value (downy brome; 62 g/ha) was 40, the “Plant response rating Downy Brome” value (downy brome; 250 g/ha) was 70 and the “Plant response rating (0 to 100), Downy Brome” value (downy brome; Rate 4 g/ha) was 0. For the same compound, the “Plant response rating (0 to 100), Downy Brome” value (downy brome; Rate 16 g/ha) was 20, the “Plant response rating Ryegrass” value (ryegrass; 62 g/ha) was 30 and the “Plant response rating Ryegrass” value (ryegrass; 250 g/ha) was 50. For the same compound, the “Plant response rating (0 to 100), Ryegrass” value (ryegrass; Rate 4 g/ha) was 10, the “Plant response rating (0 to 100), Ryegrass” value (ryegrass; Rate 16 g/ha) was 20 and the “Plant response rating, Sugar beet” value (sugar beet; 62 g/ha) was 100. The “Plant response rating, Sugar beet” value (sugar beet; 250 g/ha) was 100, the “Plant response rating (0 to 100), Sugar beet” value (sugar beet; Rate 4 g/ha) was 100 and the “Plant response rating (0 to 100), Sugar beet” value (sugar beet; Rate 16 g/ha) was 100. For the same compound, the “Plant response rating, Wild oat” value (wild oat; 62 g/ha) was 40, the “Plant response rating, Wild oat” value (wild oat; 250 g/ha) was 60 and the “Plant response rating (0 to 100), Wild oat” value (wild oat; Rate 4 g/ha) was 20. For the same compound, the “Plant response rating (0 to 100), Wild oat” value (wild oat; Rate 16 g/ha) was 30, the “Plant response rating (0 to 100), Umbrella sedge” value (umbrella sedge; POSTEMERGENCE section, flood test, Rate 4 g/ha) was 10 and the “Plant response rating (0 to 100), Umbrella sedge” value (umbrella sedge; [1]) was 10. The “Plant response rating Umbrella sedge” value (umbrella sedge; 62 g/ha) was 40 and the “Plant response rating Umbrella sedge” value (umbrella sedge; 250 g/ha) was 70.

CC(C)OC(=O)COc1cc(-c2nn3c(c2Cl)CCCC3)c(F)cc1Cl [Compound 39] was tested, and the “Plant response rating, Barnyardgrass” value (barnyardgrass; POSTEMERGENCE, Rate 50 g/ha) was 4, the “Plant response rating, Barnyardgrass” value (barnyardgrass; POSTEMERGENCE, Rate 200 g/ha) was 6 and the “Plant response rating, Barnyardgrass” value (barnyardgrass; PREEMERGENCE, Rate 50 g/ha) was 0. The “Plant response rating, Barnyardgrass” value (barnyardgrass; Rate 200 g/ha, PREEMERGENCE) was 2, the “Plant response rating, Chickweed” value (chickweed; POSTEMERGENCE, Rate 50 g/ha) was 8 and the “Plant response rating, Chickweed” value (chickweed; POSTEMERGENCE, Rate 200 g/ha) was 10. For the same compound, the “Plant response rating, Chickweed” value (chickweed; PREEMERGENCE, Rate 50 g/ha) was 0, the “Plant response rating, Chickweed” value (chickweed; Rate 200 g/ha, PREEMERGENCE) was 5 and the “Plant response rating, Rape” value (rape; POSTEMERGENCE, Rate 50 g/ha) was 5. The “Plant response rating, Rape” value (rape; PREEMERGENCE, Rate 50 g/ha) was 8, the “Plant response rating, Rape” value (rape; Rate 200 g/ha, POSTEMERGENCE) was 10 and the “Plant response rating, Rape” value (rape; Rate 200 g/ha, PREEMERGENCE) was 10. For the same compound, the “Plant response rating, Wild buckwheat” value (wild buckwheat; POSTEMERGENCE, Rate 50 g/ha) was 10, the “Plant response rating, Wild buckwheat” value (wild buckwheat; PREEMERGENCE, Rate 50 g/ha) was 10 and the “Plant response rating, Wild buckwheat” value (wild buckwheat; Rate 200 g/ha, POSTEMERGENCE) was 10. For the same compound, the “Plant response rating, Wild buckwheat” value (wild buckwheat; Rate 200 g/ha, PREEMERGENCE) was 10, the “Plant response rating, Bedstraw” value (bedstraw; 62 g/ha) was 70 and the “Plant response rating, Bedstraw” value (bedstraw; 125 g/ha) was 100. The “Plant response rating (0 to 100), Bedstraw” value (bedstraw; Rate 31 g/ha) was 60, the “Plant response rating, Corn” value (corn; 62 g/ha) was 30 and the “Plant response rating, Corn” value (corn; 125 g/ha) was 30. For the same compound, the “Plant response rating (0 to 100), Corn” value (corn; Rate 16 g/ha) was 20, the “Plant response rating (0 to 100), Corn” value (corn; Rate 31 g/ha) was 30 and the “Plant response rating, Crabgrass” value (crabgrass; 62 g/ha) was 20. The “Plant response rating, Crabgrass” value (crabgrass; 125 g/ha) was 30, the “Plant response rating (0 to 100), Crabgrass” value (crabgrass; Rate 16 g/ha) was 10 and the “Plant response rating (0 to 100), Crabgrass” value (crabgrass; Rate 31 g/ha) was 10. For the same compound, the “Plant response rating Downy Brome” value (downy brome; 62 g/ha) was 30, the “Plant response rating Downy Brome” value (downy brome; 125 g/ha) was 40 and the “Plant response rating (0 to 100), Downy Brome” value (downy brome; Rate 16 g/ha) was 10. For the same compound, the “Plant response rating (0 to 100), Downy Brome” value (downy brome; Rate 31 g/ha) was 20, the “Plant response rating Ryegrass” value (ryegrass; 125 g/ha) was 20 and the “Plant response rating (0 to 100), Ryegrass” value (ryegrass; Rate 16 g/ha) was 10. The “Plant response rating (0 to 100), Ryegrass” value (ryegrass; Rate 31 g/ha) was 10, the “Plant response rating, Sugar beet” value (sugar beet; 62 g/ha) was 100 and the “Plant response rating, Sugar beet” value (sugar beet; 125 g/ha) was 100. The “Plant response rating (0 to 100), Sugar beet” value (sugar beet; Rate 16 g/ha) was 100, the “Plant response rating (0 to 100), Sugar beet” value (sugar beet; Rate 31 g/ha) was 100 and the “Plant response rating, Wild oat” value (wild oat; 62 g/ha) was 20. The “Plant response rating, Wild oat” value (wild oat; 125 g/ha) was 30, the “Plant response rating (0 to 100), Wild oat” value (wild oat; Rate 16 g/ha) was 10 and the “Plant response rating (0 to 100), Wild oat” value (wild oat; Rate 31 g/ha) was 20. The “Plant response rating (0 to 100), Umbrella sedge” value (umbrella sedge; [1]) was 0, the “Plant response rating (0 to 100), Umbrella sedge” value (umbrella sedge; Rate 31 g/ha, under POSTEMERGENCE head (flood test species)) was 0 and the “Plant response rating Umbrella sedge” value (umbrella sedge; 62 g/ha) was 60. For the same compound, the “Plant response rating Umbrella sedge” value (umbrella sedge; 125 g/ha) was 70.
